In patent US20250129070A1, “BIFUNCTIONAL ANDROGEN RECEPTOR COMPOUNDS” (priority 2023, published 2025):
pEC50: −log10 of the molar value.

Each compound was assayed on AR / CBP ternary complex (assay: Ternary complex formation assay (sandwich ELISA, AR capture / CBP detection) in VCaP cell lysates). Conditions: 1.5 hours treatment, sandwich ELISA (AR capture, CBP or p300 detection).
Assay type: cell-based
Method: Preparation of Mouse Anti-AR Antibody Coated 96 Well Plates
Black MaxiSorp plates: coat with 50 μL of mouse 1/50 diluted AR antibody (Monoclonal Antibody (AR 441 from Thermo Fisher); diluted in phosphate buffered saline (PBS). Spin the liquid to the bottom of the wells, if necessary. Incubate overnight at 4° C. Next day, wash 3 times with 200 μL of TBST. Block with 200 μL of blocking buffer (5% BSA in TBST) at room temperature for 2 hours (BSA: A4503 or A2153 from Sigma). Wash plates 3 times with TBST. Plates are ready for lysates Preparation of dimerizer treated lysates
Culture cells in 96 wells at 50K VCaP cells/well for at least 3 days. Plate in 5% Omega charcoal stripped FBS in total volume of 200 uL. Treat with bifunctional for 1.5 hours by adding 1 μL of 200× stock in DMSO. Aspirate media/compound. Add and pipet-to-mix 70 μL of 1× AlphaLisa Lysis Buffer to each well (Perkin Elmer, AlphaLISA SureFire Ultra, diluted in water). Pipet up and down when adding lysis buffer to disrupt cells. Let lysis proceed for 30 min at 4° C.
Incubate for 1 hour at room temperature. Flick out the lysates. Wash 3 times with TBST. Add 75 μL of rabbit CBP or p300 antibody to each well (diluted 1:5000 in blocking buffer (5% BSA in TBST). CBP antibody: (D6C5) Rabbit mAb #7389; p300 antibody: (D8Z4E) Rabbit mAb #86377. Incubate overnight at 4° C. Wash 3 times with 300 uL TBST, each time on shaker for 5-10 min. Prepare goat anti-rabbit antibody conjugated to HRP (1/100K dilution in blocking buffer) Invitrogen Catalog number: 32260. Add 75 μL of HRP-conjugated goat anti-rabbit antibody. Incubate at room temperature for 1 hour. Flick out the HRP-antibody mixture. Wash 7-8 times with TBST, each time on shaker for 10 min. Later washes try to overflow the wells so that no residual HRP remains bound to the sides of the well. Prepare and add 75 uL/well of QuantaRed Enhance Chemifluorescent HRP Substrate solution. Immediately read fluorescence on BMG ClarioStar (ex: 570/em 585), and repeat the read in 5 minutes and 15 minutes.

pEC50 | Compound
7.00 to 8.00 | CC(=O)N1CCc2c(c(N3CCCc4cc(-c5cnn(C)c5)c(C(F)F)cc43)nn2C2CC3(C2)CN(CC2CN(c4ccc(C(=O)NC5C(C)(C)C(Oc6ccc(C#N)c(Cl)c6)C5(C)C)nn4)C2)C3)C1 (stereo not drawn) [Compound 212, 6-[3-[[6-[5-acetyl-3-[7-(difluoromethyl)-6-(1-methylpyrazol-4-yl)-3,4-dihydro-2H-quinolin-1-yl]-6,7-dihydro-4H-pyrazolo[4,3-c]pyridin-1-yl]-2-azaspiro [3.3]heptan-2-yl]methyl]azetidin-1-yl]-N-[3-(3-chloro-4-cyano-phenoxy)-2,2,4,4-tetramethyl-cyclobutyl]pyridazine-3-carboxamide]
> 9.00 | CC(=O)N1CCc2c(c(N3CCCc4cc(-c5cn(C)cn5)c(C(F)F)cc43)nn2C2CCN(CC3C(C)CN(c4ncc(C(=O)NC5C(C)(C)C(Oc6ccc(C#N)c(Cl)c6)C5(C)C)cn4)CC3C)CC2)C1 (stereo not drawn) [Compound 425, 2-[4-[[4-[5-acetyl-3-[7-(difluoromethyl)-6-(1-methylimidazol-4-yl)-3,4-dihydro-2H-quinolin-1-yl]-6,7-dihydro-4H-pyrazolo[4,3-c]pyridin-1-yl]-1-piperidyl]methyl]-3,5-dimethyl-1-piperidyl]-N-[3-(3-chloro-4-cyano-phenoxy)-2,2,4,4-tetramethyl-cyclobutyl]pyrimidine-5-carboxamide]
> 9.00 | CC(=O)N1CCc2c(c(-c3cccc4cc(-c5cnn(CCOC6CCN(c7ncc(C(=O)NC8C(C)(C)C(Oc9ccc(C#N)c(Cl)c9)C8(C)C)cn7)CC6)c5)ncc34)nn2C2CCOCC2)C1 (stereo not drawn) [Compound 138, 2-[4-[2-[4-[8-(5-acetyl-1-tetrahydropyran-4-yl-6,7-dihydro-4H-pyrazolo[4,3-c]pyridin-3-yl)-3-isoquinolyl]pyrazol-1-yl]ethoxy]-1-piperidyl]-N-[3-(3-chloro-4-cyano-phenoxy)-2,2,4,4-tetramethyl-cyclobutyl]pyrimidine-5-carboxamide]
> 9.00 | CC(=O)N1CCc2c(c(N3CCCc4cc(-c5cncs5)c(C(F)F)cc43)nn2C2CCN(CC3C(C)CN(c4ncc(C(=O)NC5C(C)(C)C(Oc6ccc(C#N)c(Cl)c6)C5(C)C)cn4)CC3C)CC2)C1 (stereo not drawn) [Compound 422, 2-[4-[[4-[5-acetyl-3-[7-(difluoromethyl)-6-thiazol-5-yl-3,4-dihydro-2H-quinolin-1-yl]-6,7-dihydro-4H-pyrazolo[4,3-c]pyridin-1-yl]-1-piperidyl]methyl]-3,5-dimethyl-1-piperidyl]-N-[3-(3-chloro-4-cyano-phenoxy)-2,2,4,4-tetramethyl-cyclobutyl]pyrimidine-5-carboxamide]
8.00 to 9.00 | COc1cc(OC2C(C)(C)C(NC(=O)c3ccc(N4CCC(C5CCC(n6nc(N7CCCc8cc(-c9cnn(C)c9)c(C(F)F)cc87)c7c6CCN(C(C)=O)C7)CC5)CC4)cc3)C2(C)C)ccc1C#N (stereo not drawn) [Compound 258, 4-[4-[4-[5-acetyl-3-[7-(difluoromethyl)-6-(1-methylpyrazol-4-yl)-3,4-dihydro-2H-quinolin-1-yl]-6,7-dihydro-4H-pyrazolo[4,3-c]pyridin-1-yl]cyclohexyl]-1-piperidyl]-N-[3-(4-cyano-3-methoxy-phenoxy)-2,2,4,4-tetramethyl-cyclobutyl]benzamide]

Compound | pEC50
CC(=O)N1CCc2c(c(N3CCCc4cc(-c5cnn(C)c5)c(C(F)F)cc43)nn2C2CCN(C(=O)C3CN(c4ncc(C(=O)NC5C(C)(C)C(Oc6ccc(C#N)c(Cl)c6)C5(C)C)cn4)C3)CC2)C1 (stereo not drawn) [Compound 118, 2-[3-[4-[5-acetyl-3-[7-(difluoromethyl)-6-(1-methylpyrazol-4-yl)-3,4-dihydro-2H-quinolin-1-yl]-6,7-dihydro-4H-pyrazolo[4,3-c]pyridin-1-yl]piperidine-1-carbonyl]azetidin-1-yl]-N-[3-(3-chloro-4-cyano-phenoxy)-2,2,4,4-tetramethyl-cyclobutyl]pyrimidine-5-carboxamide] | < 7.00
